Results: patent US9376425B2, “Heterocyclic compounds as MDM2 inhibitors for the treatment of cancer” (AMGEN INC., priority 2011, dated 2016)

The compounds below were run against T1, human MDM2 (GST-hMDM2 1-188), interaction with biotinylated-p53 (1-83) (Homo sapiens, UniProt Q00987) (assay: improved HTRF assay (HTRF2 assay), inhibition of HDM2-p53 interaction). Conditions: 0.2 nM GST-hMDM2, 0.5 nM biotinylated-p53, 100 mM KF.
T1 construct: Amino acid residues 1-188 of human MDM2 were expressed; made in house; host or cells: Escherichia coli
T1 sequence (Q00987 1-188): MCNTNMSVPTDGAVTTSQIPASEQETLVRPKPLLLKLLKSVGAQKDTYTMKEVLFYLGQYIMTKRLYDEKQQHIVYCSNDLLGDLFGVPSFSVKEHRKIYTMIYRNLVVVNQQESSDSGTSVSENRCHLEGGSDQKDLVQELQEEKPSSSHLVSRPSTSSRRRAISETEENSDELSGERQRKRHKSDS
Type: binding
Protocol: Residues 1-83 of human p53 were expressed as an amino-terminal AviTag™-TrxA-6xHis fusion protein (biotinylated p53) in E. coli. Each protein was purified from cell paste by affinity chromatography.
Specifically, 10 uL of GST-hMDM2 was incubated with 10 ul of diluted compound (various concentrations, serially diluted) in 10% DMSO for 20 minutes at room temperature. 20 uL of biotinylated-p53 was added to the GST-hMDM2+ compound mixture, and then incubated at room temperature for 60 min. 10 uL of detection buffer consisting of SA-XLent, anti-GST cryptate antibody and KF was added to GST-hMDM2, biotinylated-p53 and compound reaction and left at room temperature to reach equilibrium for >4 hrs. The final concentration of DMSO in the reaction was 2%. Time-resolved fluorescence readings were measured on a microplate multilabel reader. Percentage of inhibition was calculated relative to nutlin-3.

Compared with `C[C@]1(CC(=O)O)O[C@H](c2cccc(Cl)c2)[C@@H](c2ccc(Cl)cc2)N([C@H](CN(c2ccccc2F)S(=O)(=O)C2CC2)C2CC2)C1=O` (single isomer, unassigned) [Example 331, 2-((2R,5R,6R)-6-(3-Chlorophenyl)-5-(4-chlorophenyl)-4-((S)-1-cyclopropyl-2-(N-(2-fluorophenyl)cyclopropanesulfonamido)ethyl)-2-methyl-3-oxomorpholin-2-yl)acetic acid or 2-((2S,5R,6R)-6-(3-chlorophenyl)-5-(4-chlorophenyl)-4-((S)-1-cyclopropyl-2-(N-(2-fluorophenyl)cyclopropanesulfonamido)ethyl)-2-methyl-3-oxomorpholin-2-yl)acetic acid], `CC[C@@H](CN(c1ccccc1F)S(=O)(=O)C1CC1)N1C(=O)[C@@](C)(CC(=O)O)O[C@H](c2cccc(Cl)c2)[C@H]1c1ccc(Cl)cc1` (single isomer, unassigned) [Example 330, 2-((2R,5R,6R)-6-(3-Chlorophenyl)-5-(4-chlorophenyl)-4-((S)-1-(N-(2-fluorophenyl)cyclopropanesulfonamido)butan-2-yl)-2-methyl-3-oxomorpholin-2-yl)acetic acid or 2-((2S,5R,6R)-6-(3-chlorophenyl)-5-(4-chlorophenyl)-4-((S)-1-(N-(2-fluorophenyl)cyclopropanesulfonamido)butan-2-yl)-2-methyl-3-oxomorpholin-2-yl)acetic acid] is higher in IC50: under 1 nM for the first, 1 nM for the second.

First: CC[C@@H](CS(=O)(=O)C(C)(C)C)N1C(=O)[C@H](CC(=O)OC)O[C@H](c2cccc(Cl)c2)[C@H]1c1ccc(Cl)cc1 [Example 150, Methyl 2-((2S,5R,6R)-4-((S)-1-(tert-butylsulfonyl)butan-2-yl)-6-(3-chlorophenyl)-5-(4-chlorophenyl)-3-oxomorpholin-2-yl)acetate]
Second: CC[C@@H](CS(=O)(=O)C(C)(C)C)N1C(=O)[C@H](CC(=O)NC#N)O[C@H](c2cccc(Cl)c2)[C@H]1c1ccc(Cl)cc1 [Example 344, 2-((2S,5R,6R)-4-((S)-1-(tert-Butylsulfonyl)butan-2-yl)-6-(3-chlorophenyl)-5-(4-chlorophenyl)-3-oxomorpholin-2-yl)-N-cyanoacetamide]
The IC50 of the first is higher: 21 nM for the first, under 1 nM for the second. The second is the more potent here.

First: CC[C@@H](CS(=O)(=O)CC1CC1)N1C(=O)[C@@H](CC(=O)O)O[C@H](c2cccc(Cl)c2)[C@H]1c1ccc(Cl)cc1 (single isomer, unassigned) [Example 190, 2-((2R,5R,6R)-6-(3-chlorophenyl)-5-(4-chlorophenyl)-4-((S)-1-((cyclopropylmethyl)sulfonyl)butan-2-yl)-3-oxomorpholin-2-yl)acetic acid or 2-((2S,5R,6R)-6-(3-chlorophenyl)-5-(4-chlorophenyl)-4-((S)-1-((cyclopropylmethyl)sulfonyl)butan-2-yl)-3-oxomorpholin-2-yl)acetic acid]
Second: CC[C@@H](CS(=O)(=O)C1CC1)N1C(=O)[C@@H](CC(=O)O)O[C@H](c2cccc(Cl)c2)[C@H]1c1ccc(Cl)cc1 (single isomer, unassigned) [Example 212, 2-((2R,5R,6R)-6-(3-chlorophenyl)-5-(4-chlorophenyl)-4-((S)-1-(cyclopropylsulfonyl)butan-2-yl)-3-oxomorpholin-2-yl)acetic acid or 2-((2S,5R,6R)-6-(3-chlorophenyl)-5-(4-chlorophenyl)-4-((S)-1-(cyclopropylsulfonyl)butan-2-yl)-3-oxomorpholin-2-yl)acetic acid]
The IC50 of the first is 1.5-fold higher: 3 nM for the first, 2 nM for the second. The second is the more potent here.

First: C[C@@H](CS(=O)(=O)C(C)(C)C)N1C(=O)[C@H](CC(N)=O)O[C@H](c2cccc(Cl)c2)[C@H]1c1ccc(Cl)cc1 (single isomer, unassigned) [Example 226, 2-((2S,5R,6R)-4-((S)-1-(tert-butylsulfonyl)propan-2-yl)-6-(3-chlorophenyl)-5-(4-chlorophenyl)-3-oxomorpholin-2-yl)acetamide or 2-((2R,5R,6R)-4-((S)-1-(tert-butylsulfonyl)propan-2-yl)-6-(3-chlorophenyl)-5-(4-chlorophenyl)-3-oxomorpholin-2-yl)acetamide]
Second: CC(C)(C)S(=O)(=O)C[C@H](CC(F)(F)F)N1C(=O)[C@@H](CC(N)=O)O[C@H](c2cccc(Cl)c2)[C@H]1c1ccc(Cl)cc1 (single isomer, unassigned) [Example 363, 22-((2R,5R,6R)-4-((S)-1-(tert-Butylsulfonyl)-4,4,4-trifluorobutan-2-yl)-6-(3-chlorophenyl)-5-(4-chlorophenyl)-3-oxomorpholin-2-yl)acetamide or 2-((2S,5R,6R)-4-((S)-1-(tert-butylsulfonyl)-4,4,4-trifluorobutan-2-yl)-6-(3-chlorophenyl)-5-(4-chlorophenyl)-3-oxomorpholin-2-yl)acetamide]
The IC50 of the first is 2.1-fold lower: 11 nM for the first, 23 nM for the second. The first is the more potent here.

Going from `CC[C@@H](CS(=O)(=O)C(C)(C)C)N1C(=O)[C@@H](CC(=O)O)O[C@H](c2cccc(Cl)c2)[C@@]1(C)c1ccc(Cl)cc1` (single isomer, unassigned) [Example 163, 2-((2R,5R,6R)-4-((S)-1-(tert-butylsulfonyl)butan-2-yl)-6-(3-chlorophenyl)-5-(4-chlorophenyl)-5-methyl-3-oxomorpholin-2-yl)acetic acid or 2-((2S,5R,6R)-4-((S)-1-(tert-butylsulfonyl)butan-2-yl)-6-(3-chlorophenyl)-5-(4-chlorophenyl)-5-methyl-3-oxomorpholin-2-yl)acetic acid] to `CC[C@@H](CS(=O)(=O)C(C)(C)C)N1C(=O)[C@@H](CC(=O)O)O[C@H](c2cc(F)cc(Cl)c2)[C@H]1c1ccc(Cl)c(F)c1` (single isomer, unassigned) [Example 425, 2-((2R,5R,6R)-4-((S)-1-(tert-Butylsulfonyl)butan-2-yl)-5-(4-chloro-3-fluorophenyl)-6-(3-chloro-5-fluorophenyl)-3-oxomorpholin-2-yl)acetic acid or 2-((2S,5R,6R)-4-((S)-1-(tert-butylsulfonyl)butan-2-yl)-5-(4-chloro-3-fluorophenyl)-6-(3-chloro-5-fluorophenyl)-3-oxomorpholin-2-yl)acetic acid], the IC50 falls from 6620 nM to under 1 nM.

Compared with `CC(C)S(=O)(=O)C[C@H](C1CC1)N1C(=O)[C@@H](CC(=O)O)O[C@H](c2cccc(Cl)c2)[C@H]1c1ccc(Cl)cc1` (single isomer, unassigned) [Example 156, 2-((2R,5R,6R)-6-(3-chlorophenyl)-5-(4-chlorophenyl)-4-((S)-1-cyclopropyl-2-(isopropylsulfonyl)ethyl)-3-oxomorpholin-2-yl)acetic acid or 2-((2S,5R,6R)-6-(3-chlorophenyl)-5-(4-chlorophenyl)-4-((S)-1-cyclopropyl-2-(isopropylsulfonyl)ethyl)-3-oxomorpholin-2-yl)acetic acid], `CC(C)(C)S(=O)(=O)C[C@H](C1CC1)N1C(=O)[C@@H](CC(=O)O)O[C@H](c2ccc(C#N)c(Cl)c2)[C@H]1c1ccc(Cl)cc1` (single isomer, unassigned) [Example 324, 2-((2R,5R,6R)-4-((S)-2-(tert-Butylsulfonyl)-1-cyclopropylethyl)-6-(3-chloro-4-cyanophenyl)-5-(4-chlorophenyl)-3-oxomorpholin-2-yl)acetic acid or 2-((2S,5R,6R)-4-((S)-2-(tert-butylsulfonyl)-1-cyclopropylethyl)-6-(3-chloro-4-cyanophenyl)-5-(4-chlorophenyl)-3-oxomorpholin-2-yl)acetic acid] is 7-fold higher in IC50: 1 nM for the first, 7 nM for the second. The first is the more potent here.

Compared with `CC[C@@H](CS(=O)(=O)C(C)C)N1C(=O)[C@@H](CC(=O)O)O[C@H](c2cc(F)cc(Cl)c2)[C@H]1c1ccc(Cl)cc1` (single isomer, unassigned) [Example 124, 2-((2R,5R,6R)-6-(3-Chloro-5-fluorophenyl)-5-(4-chlorophenyl)-4-((S)-1-(isopropylsulfonyl)butan-2-yl)-3-oxomorpholin-2-yl)acetic acid or 2-((2S,5R,6R)-6-(3-Chloro-5-fluorophenyl)-5-(4-chlorophenyl)-4-((S)-1-(isopropylsulfonyl)butan-2-yl)-3-oxomorpholin-2-yl)acetic acid], `CC[C@@H](CS(=O)(=O)C(C)C)N1C(=O)[C@@H](CC(=O)O)O[C@H](c2cc(Cl)cc(Cl)c2)[C@H]1c1ccc(Cl)cc1` (single isomer, unassigned) [Example 145, 2-((2R,5R,6R)-5-(4-chlorophenyl)-6-(3,5-dichlorophenyl)-4-((S)-1-(isopropylsulfonyl)butan-2-yl)-3-oxomorpholin-2-yl)acetic acid or 2-((2S,5R,6R)-5-(4-chlorophenyl)-6-(3,5-dichlorophenyl)-4-((S)-1-(isopropylsulfonyl)butan-2-yl)-3-oxomorpholin-2-yl)acetic acid] is 4-fold higher in IC50: 2 nM for the first, 8 nM for the second. The first is the more potent here.

Going from `O=C(O)C[C@H]1O[C@H](c2cccc(Cl)c2)[C@@H](c2ccc(Cl)cc2)N([C@H](CN(c2ccccc2F)S(=O)(=O)C2CC2)CC(F)(F)F)C1=O` (single isomer, unassigned) [Example 277] to `CC(C)(C)SC[C@H](C1CC1)N1C(=O)[C@@H](CC(=O)O)O[C@H](c2ccc(Br)c(Cl)c2)[C@H]1c1ccc(Cl)cc1` (single isomer, unassigned) [Example 323, 2-((2R,5R,6R)-6-(4-Bromo-3-chlorophenyl)-4-((S)-2-(tert-butylthio)-1-cyclopropylethyl)-5-(4-chlorophenyl)-3-oxomorpholin-2-yl)acetic acid or 2-((2S,5R,6R)-6-(4-bromo-3-chlorophenyl)-4-((S)-2-(tert-butylthio)-1-cyclopropylethyl)-5-(4-chlorophenyl)-3-oxomorpholin-2-yl)acetic acid], the IC50 falls from 106 nM to 16 nM (6.6-fold). The second is the more potent here.
